In article PMC12921516 (ACS Bio & Med Chem Au, 2025):
“Also recorded” adds a separate entry of the source.

Legend:
normoglycemic CD1 mice = experiment: Oral glucose tolerance test (OGTT); format: in vivo; details: single intragastric dose 50 mg/kg, glucose 2 g/kg
Protocol: The studies were carried out on compounds 4b, 4g, and 5g using both normoglycemic CD1 mice and a mouse model of noninsulin-dependent diabetes mellitus (NIDDM). An oral glucose tolerance test (OGTT) was conducted on the normoglycemic mice to evaluate the hypoglycemic activity of the compounds, while an insulin tolerance test (ITT) was performed on hyperglycemic CD1 mice to assess the compounds’ capacity to enhance insulin sensitivity in streptozotocin-induced diabetic mice. Pioglitazone and GA were included as positive controls.
Healthy six-week-old male CD-1 mice, weighing between 30 and 40 g, were maintained at a temperature of 25 ± 2 °C, under a 12-h light/dark cycle and 45–65% humidity throughout the experimental period. The mice were provided with a rodent pelleted diet (Harlan Laboratories, Indianapolis, USA) and had access to water ad libitum. Sixteen hours before the experiment, all mice were fasted but still had free access to water. All animal procedures were conducted in accordance with the Mexican Federal Regulations for Animal Experimentation and Care (SAGARPA, NOM-062-ZOO-1999, Mexico) and received approval from the Institutional Animal Care and Use Committee, following guidelines outlined in the US National Institutes of Health publication (No. 85–23, revised 1985).
Animals were categorized into five groups, each consisting of four mice (n = 4). The experimental groups received an oral suspension of compounds 4b, 4g, and 5g, prepared in a 10% Tween 20/water solution, at a dosage of 50 mg/kg body weight. A control group was treated with only the 10% Tween 20 solution. The final group was administered pioglitazone at a dose of 45 mg/kg, which is recognized as a reference drug for insulin sensitization. To evaluate glucose levels, blood samples were collected from the tails of the mice at 0, 30, 60, 90, and 120 min after the administration of the vehicle, test compound, or drug. Blood glucose concentration was measured using a commercial glucometer (Accu-Chek, Performa; Roche) and the enzymatic glucose dehydrogenase method. The percentage variation in glycemia was calculated by comparing the selected postadministration glycemia (G x ) with the initial value (G0) using the following formula: %variationofglycemia=[(Gx−G0)/G0]×100 where G0 represents the initial glycemia values and Gx indicates the glycemia values at +30, + 60, + 90, and +120 min, respectively.
To determine the hypoglycemic effect of the compounds on nondiabetic animals, the compounds 4b, 4g, and 5g were administered intragastrically. Pioglitazone was used as a positive control. After 30 min, five mice/group (CD-1) were subjected to OGTT. The test was performed using glucose (2 g/kg) as substrate.

[1] = Cytotoxicity, Sulforhodamine B assay; format: cell-based, human; details: human, HFF-1 normal foreskin fibroblast cells; HFF-1 proliferation, 48-h incubation, 0.78 μM to 100 μM
Protocol: Given the significance of a drug candidate’s toxicity in relation to its inhibition potential, a cytotoxicity assay was conducted using Normal Human Foreskin Fibroblasts (HFF-1).
All assays were carried out in triplicate. Cell proliferation was determined by the Sulforhodamine B assay, and the half-maximal cytotoxic concentration (CC50) was determined by Probit analysis.

[2] = tested on: STZ-induced diabetic CD-1 mice; experiment: Insulin tolerance test (ITT); format: in vivo; details: for glycemia variation in ITT: single intragastric dose 50 mg/kg, insulin 0.75 IU after 30 min
Protocol: The studies were carried out on compounds 4b, 4g, and 5g using both normoglycemic CD1 mice and a mouse model of noninsulin-dependent diabetes mellitus (NIDDM). An oral glucose tolerance test (OGTT) was conducted on the normoglycemic mice to evaluate the hypoglycemic activity of the compounds, while an insulin tolerance test (ITT) was performed on hyperglycemic CD1 mice to assess the compounds' capacity to enhance insulin sensitivity in streptozotocin-induced diabetic mice. Pioglitazone and GA were included as positive controls. […] Healthy six-week-old male CD-1 mice, weighing between 30 and 40 g, were maintained at a temperature of 25 ± 2 °C, under a 12-h light/dark cycle and 45-65% humidity throughout the experimental period. The mice were provided with a rodent pelleted diet (Harlan Laboratories, Indianapolis, USA) and had access to water ad libitum. Sixteen hours before the experiment, all mice were fasted but still had free access to water. All animal procedures were conducted in accordance with the Mexican Federal Regulations for Animal Experimentation and Care (SAGARPA, NOM-062-ZOO-1999, Mexico) and received approval from the Institutional Animal Care and Use Committee, following guidelines outlined in the US National Institutes of Health publication (No. 85-23, revised 1985). Streptozotocin (STZ) was dissolved in citrate buffer (pH 4.5), while nicotinamide was dissolved in a normal physiological saline solution. The noninsulin-dependent diabetes (NIDD) mouse model was induced in overnight-fasted mice through a single intraperitoneal injection of STZ (100 mg/kg). Nicotinamide was administered 15 min prior, at a dose of 20 mg/kg via intraperitoneal injection. […] Roche). […] Animals were categorized into five groups, each consisting of four mice (n = 4). The experimental groups received an oral suspension of compounds 4b, 4g, and 5g, prepared in a 10% Tween 20/water solution, at a dosage of 50 mg/kg body weight. A control group was treated with only the 10% Tween 20 solution. The final group was administered pioglitazone at a dose of 45 mg/kg, which is recognized as a reference drug for insulin sensitization. To evaluate glucose levels, blood samples were collected from the tails of the mice at 0, 30, 60, 90, and 120 min after the administration of the vehicle, test compound, or drug. Blood glucose concentration was measured using a commercial glucometer (Accu-Chek, Performa; Roche) and the enzymatic glucose dehydrogenase method. The percentage variation in glycemia was calculated by comparing the selected postadministration glycemia (G x ) with the initial value (G0) using the following formula: %[…]=[(Gx-G0)/G0]×100 where G0 represents the initial glycemia values and Gx indicates the glycemia values at +30, + 60, + 90, and +120 min, respectively. To evaluate the ability of GA derivatives to enhance insulin sensitivity in STZ-induced diabetic CD-1 mice, compounds 4b, 4g, and 5g were tested. Glycyrrhetinic acid (GA) and Pioglitazone served as positive controls. The GA derivatives and the positive controls were administered to the diabetic animals, followed by the administration of human rapid-acting insulin (0.75 IU) after 30 min. Subsequently, glucose levels were measured every 15 min.

SMILES	hypoglycemic effect in OGTT (normoglycemic CD1 mice)	CC50 at 48 h [1]	ITT activity compared to GA ([2]; 50 mg/kg)	glycemia variation in ITT ([2]; 50 mg/kg)	glycemia variation in ITT [2]	ITT activity compared to pioglitazone ([2]; 50 mg/kg vs pioglitazone 45 mg/kg)	glycemic variation in ITT compared with normoglycemic mice ([2]; 50 mg/kg, after the 45th minute)
CC1(C)c2[nH]c3ccc(OC(F)F)cc3c2C[C@]2(C)[C@H]3C(=O)C=C4[C@@H]5C[C@@](C)(C(=O)O)CC[C@]5(C)CC[C@@]4(C)[C@]3(C)CC[C@@H]12 [compound 4b, (20β)-5′-(Difluoromethoxy)-11-oxo-1′H-oleana-2,12-dieno[3,2-b]indol-29-oic Acid]	did not cause hypoglycemia	98.7 ± 2 µM	greater potency than GA	significantly reduced glucose levels; also recorded: reduce glycemia variation starting from the 15th minute	–	–	–
CC1(C)c2[nH]c3ccc(S(N)(=O)=O)cc3c2C[C@]2(C)[C@H]3C(=O)C=C4[C@@H]5C[C@@](C)(C(=O)O)CC[C@]5(C)CC[C@@]4(C)[C@]3(C)CC[C@@H]12 [compound 4g, (20β)-5′-Sulfamoyl-11-oxo-1′H-oleana-2,12-dieno[3,2-b]indol-29-oic Acid]	did not cause hypoglycemia	> 100 µM	–	–	reduce glycemia variation starting from the 15th minute	–	–
CC1(C)c2c(cnn2-c2ccc(S(N)(=O)=O)cc2)C[C@]2(C)[C@H]3C(=O)C=C4[C@@H]5C[C@@](C)(C(=O)O)CC[C@]5(C)CC[C@@]4(C)[C@]3(C)CC[C@@H]12 [compound 5g, (20β)-11-Oxo-2′-(4-sulfamoylphenyl)-2′H-oleana-2,12-dieno[3,2-c]pyrazol-29-oic Acid]	did not cause hypoglycemia	> 100 µM	greater potency than GA	significantly reduced glucose levels; also recorded: reduce glycemia variation starting from the 15th minute	–	superior activity compared to pioglitazone	no significant differences in glycemic variation
